Reference: patent US20020111274A1, “1-alkyl-3-[1-(substituted phenyl) benzotriazol-6-yl] uracils” (BASF Aktiengesellschaft, priority 2000, published 2002)

Columns and labels:
Parameters in all cases: scale not given here
CASOB Sicklepod = experiment: Postemergence herbicidal evaluation, CASOB; format: in vivo, Cassia obtusifolia, L.; conditions: postemergence spray, rated about two-three weeks after treatment
Method in brief: (§1)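 Postemergence spray, 40 psi nozzle, on ~2-week seedlings. Carrier: acetone/water 80/20, 1.0% methylated seed oil; dose ~0.006–0.400 kg/ha. Scored visually at 2–3 weeks.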

[1] = system: TRZAWR Wheat, Winter, cv Riband; experiment: Postemergence herbicidal evaluation, TRZAWR; format: in vivo, Triticum aestivum; conditions: postemergence spray, rated about two-three weeks after treatment
Method in brief: as §1

ABUTH Velvetleaf [2] = experiment: Postemergence herbicidal evaluation, ABUTH; format: in vivo, Abutilon theophrasti, Medic.; conditions: postemergence spray, rated about two-three weeks after treatment
Method in brief: as §1

GLXMAW Soybean, Williams = experiment: Postemergence herbicidal evaluation, GLXMAW; format: in vivo, Glycine max, (L.) Merr. cv Williams; conditions: postemergence spray, rated about two-three weeks after treatment
Method in brief: as §1

[3] = system: IPOHE Morningglory, Ivyleaf; experiment: Preemergence herbicidal evaluation, IPOHE; format: in vivo, Ipomoea hederacea, (L.) Jacq.; conditions: preemergence
Method in brief: (§2)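 Seeds mixed with potting soil were planted on about one inch of soil in cups, then sprayed with the test compound in aqueous acetone at roughly 0.013 to 0.800 kg per hectare. Plants were kept under standard greenhouse care and injury was rated four to five weeks after treatment.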

ZEAMX Corn, Field [4] = experiment: Preemergence herbicidal evaluation, ZEAMX; format: in vivo, Zea mays, L. (Sammel-Bezeichnung); conditions: preemergence
Method in brief: as §2

SETVI Foxtail, Green = experiment: Postemergence herbicidal evaluation, SETVI; format: in vivo, Setaria viridis, (L.) Beau; conditions: postemergence spray, rated about two-three weeks after treatment
Method in brief: as §1

ECHOG Barnyardgrass = experiment: Preemergence herbicidal evaluation, ECHOG; format: in vivo, Echinochloa crus-galli, (L.) Beau; conditions: preemergence
Method in brief: as §2

ZEAMX Corn, Field [5] = experiment: Postemergence herbicidal evaluation, ZEAMX; format: in vivo, Zea mays, L. (Sammel-Bezeichnung); conditions: postemergence spray, rated about two-three weeks after treatment
Method in brief: as §1

ORYSAT Rice, Tebonnet = experiment: Preemergence herbicidal evaluation, ORYSAT; format: in vivo, Oryza sativa, (L.); conditions: preemergence
Method in brief: as §2

AMBEL Ragweed, Common = experiment: Postemergence herbicidal evaluation, AMBEL; format: in vivo, Ambrosia artemisifolia, L.; conditions: postemergence spray, rated about two-three weeks after treatment
Method in brief: as §1

ABUTH Velvetleaf [6] = experiment: Preemergence herbicidal evaluation, ABUTH; format: in vivo, Abutilon theophrasti, Medic.; conditions: preemergence
Method in brief: as §2

Q: What does the source list for `COc1ccc(C)cc1-n1nnc2cc(F)c(-n3c(=O)cc(C(F)(F)F)n(C)c3=O)cc21` [Example 18, 3-[5-fluoro-1-(2-methoxy-5-methylphenyl)-1H-1,2,3-benzotriazol-6-yl]-1-methyl-6-(trifluoromethyl)-2,4(1H,3H)-pyrimidinedione]?
A: Postemergence herbicidal rating CASOB (CASOB Sicklepod; 0.008 kg/ha): 0.0; Postemergence herbicidal rating CASOB (CASOB Sicklepod; 0.016 kg/ha): 7.0; Postemergence herbicidal rating CASOB (CASOB Sicklepod; 0.032 kg/ha): 6.0; Postemergence herbicidal rating CASOB (CASOB Sicklepod; 0.062 kg/ha): 7.0; Postemergence herbicidal rating TRZAWR ([1]; 0.008 kg/ha): 3.5; Postemergence herbicidal rating TRZAWR ([1]; 0.016 kg/ha): 4.5; Postemergence herbicidal rating TRZAWR ([1]; 0.032 kg/ha): 5.5; Postemergence herbicidal rating TRZAWR ([1]; 0.062 kg/ha): 4.5; Postemergence herbicidal rating ABUTH (ABUTH Velvetleaf [2]; 0.008 kg/ha): 9.0; Postemergence herbicidal rating ABUTH (ABUTH Velvetleaf [2]; 0.016 kg/ha): 9.0; Postemergence herbicidal rating ABUTH (ABUTH Velvetleaf [2]; 0.032 kg/ha): 9.0; Postemergence herbicidal rating ABUTH (ABUTH Velvetleaf [2]; 0.062 kg/ha): 9.0; Postemergence herbicidal rating GLXMAW (GLXMAW Soybean, Williams; 0.008 kg/ha): 4.5; Postemergence herbicidal rating GLXMAW (GLXMAW Soybean, Williams; 0.016 kg/ha): 4.5; Postemergence herbicidal rating GLXMAW (GLXMAW Soybean, Williams; 0.032 kg/ha): 6.5; Postemergence herbicidal rating GLXMAW (GLXMAW Soybean, Williams; 0.062 kg/ha): 6.0; IPOHE herbicidal rating ([3]; rate 0.016 kg/ha): 7.5; IPOHE herbicidal rating ([3]; rate 0.032 kg/ha): 9.0; IPOHE herbicidal rating ([3]; rate 0.062 kg/ha): 8.0; IPOHE herbicidal rating ([3]; rate 0.125 kg/ha): 9.0; ZEAMX herbicidal rating (ZEAMX Corn, Field [4]; rate 0.016 kg/ha): 5.0; ZEAMX herbicidal rating (ZEAMX Corn, Field [4]; rate 0.032 kg/ha): 5.0; ZEAMX herbicidal rating (ZEAMX Corn, Field [4]; rate 0.062 kg/ha): 7.0; ZEAMX herbicidal rating (ZEAMX Corn, Field [4]; rate 0.125 kg/ha): 8.5; Postemergence herbicidal rating SETVI (SETVI Foxtail, Green; 0.008 kg/ha): 0.0; Postemergence herbicidal rating SETVI (SETVI Foxtail, Green; 0.016 kg/ha): 5.0; Postemergence herbicidal rating SETVI (SETVI Foxtail, Green; 0.032 kg/ha): 9.0; Postemergence herbicidal rating SETVI (SETVI Foxtail, Green; 0.062 kg/ha): 9.0; ECHCG herbicidal rating (ECHOG Barnyardgrass; rate 0.016 kg/ha): 6.0; ECHCG herbicidal rating (ECHOG Barnyardgrass; rate 0.032 kg/ha): 8.0; ECHCG herbicidal rating (ECHOG Barnyardgrass; rate 0.062 kg/ha): 9.0; ECHCG herbicidal rating (ECHOG Barnyardgrass; rate 0.125 kg/ha): 9.0; Postemergence herbicidal rating ZEAMX (ZEAMX Corn, Field [5]; 0.008 kg/ha): 4.5; Postemergence herbicidal rating ZEAMX (ZEAMX Corn, Field [5]; 0.016 kg/ha): 5.5; Postemergence herbicidal rating ZEAMX (ZEAMX Corn, Field [5]; 0.032 kg/ha): 6.0; Postemergence herbicidal rating ZEAMX (ZEAMX Corn, Field [5]; 0.062 kg/ha): 6.0; ORYSAT herbicidal rating (ORYSAT Rice, Tebonnet; rate 0.016 kg/ha): 3.0; ORYSAT herbicidal rating (ORYSAT Rice, Tebonnet; rate 0.032 kg/ha): 6.0; ORYSAT herbicidal rating (ORYSAT Rice, Tebonnet; rate 0.062 kg/ha): 6.0; ORYSAT herbicidal rating (ORYSAT Rice, Tebonnet; rate 0.125 kg/ha): 6.0; Postemergence herbicidal rating AMBEL (AMBEL Ragweed, Common; 0.008 kg/ha): 1.0; Postemergence herbicidal rating AMBEL (AMBEL Ragweed, Common; 0.016 kg/ha): 6.0; Postemergence herbicidal rating AMBEL (AMBEL Ragweed, Common; 0.032 kg/ha): 6.0; Postemergence herbicidal rating AMBEL (AMBEL Ragweed, Common; 0.062 kg/ha): 9.0; ABUTH herbicidal rating (ABUTH Velvetleaf [6]; rate 0.016 kg/ha): 6.0; ABUTH herbicidal rating (ABUTH Velvetleaf [6]; rate 0.032 kg/ha): 9.0; ABUTH herbicidal rating (ABUTH Velvetleaf [6]; rate 0.062 kg/ha): 9.0; ABUTH herbicidal rating (ABUTH Velvetleaf [6]; rate 0.125 kg/ha): 9.0
